{
  "source": "patent US20160368919A1",
  "about": "“NOVEL PYRIDINE PYRAZINONES AS BET-FAMILY BROMODOMAIN INHIBITORS” (Pfizer Inc., priority 2015, published 2016)",
  "key": {"[1]": {"target": "T1, BRD4 BD1 (Homo sapiens, UniProt O60885)", "T1 construct": "His-tagged BRD4 BD1 (44-160); made in house", "experiment": "BRD4 BD1 Fluorescence Polarization (FP) competition binding assay", "conditions": "BRD4 BD1 40 nM, probe PFI-411FP 2 nM", "procedure,_shortened": "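BRD4 BD1 (40 nM) preincubated 15 min at 20° C. with compound (120 to 0.0012 μM) in HEPES pH 7.4 with 0.08% BSA, then 2 nM PFI-411FP tracer added for 60 min. Fluorescence polarization read (ex 620/em 688 nm); IC50 from four-parameter fit, converted to Ki via Nikolovska-Coleska equation.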"}, "[2]": {"system": "LPS-induced IL-6 production in human whole blood", "experiment": "IL-6 human whole blood (HWB) assay, LPS-stimulated, HTRF detection", "assay_type": "cell-based", "conditions": "1 ng/ml LPS, 4 hours"}, "[3]": {"system": "LnCaP cells, AR(+)", "experiment": "CRPC cell proliferation assay (CellTiter-Glo), LnCaP", "assay_type": "cell-based", "conditions": "CTG at 96h", "protocol": "(§1) Castrate-Resistant Prostate Cancer (CRPC) Cell Proliferation Assay • Cells were seeded into 96-well plates at 2,000-10,000 cells/well in 100 uL medium. Four AR(+) cell lines (LnCaP, C4-2 (parental), C4-2AR-WT and C4-2AR—F876L) and one AR(−) cell line (DU-145) were studied. Compound treated cells were analyzed for cell density at 96h, using CellTiter-Glo® (CTG) reagent (Promega)."}, "[4]": {"system": "C4-2 (parental) cells, AR(+)", "experiment": "CRPC cell proliferation assay (CellTiter-Glo), C4-2", "assay_type": "cell-based", "conditions": "CTG at 96h", "protocol": "as §1"}, "[5]": {"system": "C4-2AR-WT cells, AR(+)", "experiment": "CRPC cell proliferation assay (CellTiter-Glo), C4-2AR-WT", "assay_type": "cell-based", "conditions": "CTG at 96h", "protocol": "as §1"}, "[6]": {"system": "C4-2AR-F876L cells, AR(+)", "experiment": "CRPC cell proliferation assay (CellTiter-Glo), C4-2AR-F876L", "assay_type": "cell-based", "conditions": "CTG at 96h", "protocol": "as §1"}, "[7]": {"system": "DU-145 cells, AR(−)", "experiment": "CRPC cell proliferation assay (CellTiter-Glo), DU-145", "assay_type": "cell-based", "conditions": "CTG at 96h", "protocol": "as §1"}, "[8]": {"system": "CRPC cell lines (LnCaP, C4-2, C4-2AR-WT, C4-2AR-F876L, DU-145)", "experiment": "CRPC cell proliferation assay, summary over the cell lines", "assay_type": "cell-based", "conditions": "AR(+) cell lines, CTG at 96h", "protocol": "Castrate-Resistant Prostate Cancer (CRPC) Cell Proliferation Assay • Cells were seeded into 96-well plates at 2,000-10,000 cells/well in 100 uL medium. Four AR(+) cell lines (LnCaP, C4-2 (parental), C4-2AR-WT and C4-2AR—F876L) and one AR(−) cell line (DU-145) were studied. Compound treated cells were analyzed for cell density at 96h, using CellTiter-Glo® (CTG) reagent (Promega). […] Example 10 and IBET-151 BET had submicromolar IC50 values in the AR(+) cell lines. The inhibitors maintained potency in C4-2 cells engineered to express wild type (WT) AR receptor (C4-2-AR-WT), as well as cells engineered to express the F876L mutation (C4-2-AR-F876L) that confers resistance to androgen receptor (AR) antagonists."}},
  "data": [
    {"compound": "CCC(=O)N(C)c1ccc2nc(NCCC(=O)O)c(=O)n([C@@H](CC)c3ccccc3)c2n1", "note": "[Example 10, N-{6-[methyl(propanoyl)amino]-3-oxo-4-[(1S)-1-phenylpropyl]-3,4-dihydropyrido[2,3-b]pyrazin-2-yl}-beta-alanine]", "values": [
      {"measurement": "IC50", "setting": "[1]", "value": 0.0622, "unit": "µM"},
      {"measurement": "IC50", "setting": "[2]", "value": 0.53, "unit": "µM"},
      {"measurement": "Max % Inh", "setting": "[3]", "value": 69, "unit": "%"},
      {"measurement": "IC50", "setting": "[3]; Homo sapiens", "value": 0.32, "unit": "µM"},
      {"measurement": "IC50", "setting": "[4]", "value": 0.5, "unit": "µM"},
      {"measurement": "Max % Inh", "setting": "[4]", "value": 87, "unit": "%"},
      {"measurement": "IC50", "setting": "[5]", "value": 0.5, "unit": "µM"},
      {"measurement": "Max % Inh", "setting": "[5]", "value": 85, "unit": "%"},
      {"measurement": "IC50", "setting": "[6]", "value": 0.56, "unit": "µM"},
      {"measurement": "Max % Inh", "setting": "[6]", "value": 85, "unit": "%"},
      {"measurement": "Max % Inh", "setting": "[7]", "value": 55, "unit": "%"},
      {"measurement": "IC50", "setting": "[7]; Homo sapiens", "value": 1.88, "unit": "µM"},
      {"measurement": "IC50 values in the AR(+) cell lines", "setting": "[8]", "value": "submicromolar"}
    ]}
  ]
}
